Columns and labels:
CYP3A4 = CYP3A4 (Homo sapiens (Human), UniProt P08684); experiment: In vitro CYP3A4 inhibition assay (P450-GLO Assay kit, Promega)
Excerpt: The metabolism of retinoic acid and vitamin D in the skin is incompletely understood, but there is evidence for the involvement of CYP26A1, CYP3A4 and CYP2C8 in catalyzing the 4-hydroxylation of all-trans RA to 4-hydroxy-RA. It is believed, without being limited by theory, that CYP3A4 may be particularly important for ATRA metabolism in the skin. This is because CYP3A4 is expressed in skin, involved in RA metabolism, a CYP with one of the broadest substrate specificities of all of the known CYPs and available as a human recombinant protein in a commercial kit. Thus, a commercially available CYP3A4 assay was used as a surrogate to predict RAMBA potential in the skin.
The commercially available P450-GLO™ Assay kit (Promega Corporation, Madison Wis.) was used to screen various compounds for potential CYP activity, specifically CYP3A4A inhibition activity. CYP3A4A is thought to be among the primary CYP isoforms responsible for retinoic acid metabolism in the skin.
A commercially available P450-GLO™ Assay kit (Promega Corporation, Madison Wis.) is used to screen various compounds for CYP3A4A inhibition activity. CYP3A4A is thought to be one of the primary CYP isoforms responsible for retinoic acid metabolism in the skin.

[1] = test system: ATRA 4-hydroxylase (CYP) activity; experiment: in vitro; details: pig, pH 7.4
Excerpt: (§1) Cytochrome P450 is a large and diverse group of enzymes that catalyze the oxidation of organic substances. […] Applicant evaluated the potential RAMBA activity of several azoles using pig liver microsomes, a rich source of CYP activity, comprising many different CYP 450 isoforms. […] As understanding in this area has progressed, a more specific CYP inhibition assay can be used to provide better predictivity of activity in human skin. Nevertheless, this assay may still be used as a general predictor of overall CYP activity.
(§2) All procedures were carried out under minimal light in order to prevent degradation of the retinoid samples.
(§3) Microsomal preparation: One lobe of fresh pig liver is obtained (e.g., at about the time of slaughter from a food-processing company) and immediately placed in ice cold 15 mM KH2PO4/250 mM sucrose (pH 7.4) and kept on ice during transportation. A 10 g sample of liver is minced and homogenized in 30 mL of homogenization buffer (15 mM KH2PO4/250 mM sucrose) using a Tekmar homoginizer or equivalent by pulsing 3 times with 20 second pulses. […] The remaining pig liver may be stored at −80° C. The homogenates from the 8 samples are pooled and centrifuged at 13,000×g for 20 minutes at 4° C. to remove crude debris. The supernatant is further centrifuged at 100,000×g for 70 minutes at 4° C. The microsomal pellets are re-suspended into 50 mL of 150 mM KH2PO4/1 mM DTT (pH 7.4) and 1 mL aliquots are stored at −80° C.
(§4) 100-150 μg of pig liver microsomal protein in 150 mM KH2PO4 is incubated at 37° C. in the presence of radiolabeled ATRA and 5 mM NADPH for 90 min. The final ATRA concentration is 1 μM, as a combination of [20-Methyl-^3H]ATRA and unlabeled ATRA. Initially, radiolabeled ATRA may be used to assist in validating the method. Once retention times of retinoid metabolites are identified, unlabeled ATRA is used for screening. Compounds tested as possible competitive substrates are added to the assay 10 min prior to the addition of ATRA. Ethanol, containing 0.1% butylated hydroxytoluene (BHT) as an antioxidant, is used to stop the reactions. For recovery of ATRA the pH of reactions are adjusted to 3.0 before extraction with 0.1N HCl. Retinoids are extracted from the protein aqueous phase with 4 mL hexane, 1 ml 100 μg/ml BHT in water (pH 3). An additional 4 mL of hexane (pH 3) is used for a second extraction. The organic extractions are pooled, evaporated to dryness using a speed vac, and resuspended in 62.5 μl acetonitrile containing 1 mg/ml BHT. Samples are analyzed by HPLC.HPLC separation of retinoids. […] Mobile phases used for gradient elution of retinoids are those of Duell et al., J. Clin. Invest. […] Mobile phase A is acetonitrile:0.02 M ammonium acetate:acetic acid (1:1:0.01) and mobile phase B is acetonitrile:0.2M ammonium acetate:acetic acid (19:1:0.008). At the start of the HPLC run, solvent A is run 100% followed by a linear gradient to solvent B at 3 minutes, a shallow gradient to 81% solvent B at 38 minutes, and 100% solvent B at 40 minutes. […] Effluent from the HPLC column flows directly into a flow-through scintillation spectrometer […]. Because of the sensitivity limitations of the β-RAM spectrometer, it is not used to quantitate peak areas but rather to confirm ATRA and ATRA 4-hydroxylase activity. Calculated peaks areas (using Millenium software—Waters Corp.) of ATRA and ATRA metabolites are used to quantify relative activity levels.

[2] = test system: ATRA 4-hydroxylase (CYP) activity of pig liver microsomes; experiment: In vitro ATRA 4-hydroxylase activity assay to determine CYP inhibition (pig liver microsomes); details: pig liver microsomes
Excerpt: as §1, §2, §3, §4

facial skin = experiment: Method of treatment: topical application to the face, appearance of aging skin; format: in vivo, human; details: 0.55% by weight in a vehicle, entire face, one to two times a day for 8 weeks
Excerpt: A test subject topically applies a composition comprising 0.55% 1-phenylimidazole, by weight in a vehicle, to the entire face one to two times a day for 8 weeks.

[3] = human recombinant CYP3A4, P450-GLO kit
[4] = read-out: hit / no hit (CYP3A4 inhibition), human recombinant CYP3A4, P450-GLO kit

CYP3A4, sequence (P08684 whole entry): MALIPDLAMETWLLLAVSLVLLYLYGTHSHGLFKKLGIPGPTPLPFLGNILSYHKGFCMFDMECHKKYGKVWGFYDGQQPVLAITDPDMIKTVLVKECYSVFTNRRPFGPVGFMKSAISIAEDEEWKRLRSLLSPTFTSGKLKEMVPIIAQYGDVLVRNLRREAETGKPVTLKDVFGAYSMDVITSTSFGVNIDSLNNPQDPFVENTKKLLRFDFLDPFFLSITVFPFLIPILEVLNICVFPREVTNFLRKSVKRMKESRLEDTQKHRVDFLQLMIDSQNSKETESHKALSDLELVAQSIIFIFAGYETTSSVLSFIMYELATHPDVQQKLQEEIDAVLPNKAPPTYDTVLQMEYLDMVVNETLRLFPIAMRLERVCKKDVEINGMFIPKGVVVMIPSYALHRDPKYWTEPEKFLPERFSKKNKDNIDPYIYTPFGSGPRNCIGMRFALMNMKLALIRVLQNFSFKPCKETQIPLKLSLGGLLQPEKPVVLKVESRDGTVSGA

| IC50 (CYP3A4; [4]) | IC50 (CYP3A4; human, recombinant enzyme) | SMILES | IC50 (CYP3A4; [3]) | also measured |
| --- | --- | --- | --- | --- |
|  | > 10 µM | CCCCc1nc(C=O)c(Cl)[nH]1 [2-Butyl-4-chloro-5-formylimidazole] |  |  |
| > 10 µM |  | CCc1nc(C)c[nH]1 [2-Ethyl-4-methyl-imidazole] | > 10 µM |  |
|  | > 10 µM | CCc1ncc[nH]1 [2-Ethylimidazole] |  |  |
| > 10 µM |  | Cc1ncc[nH]1 [2-Methylimidazole] | > 10 µM |  |
|  | > 10 µM | Clc1ncnc2[nH]cnc12 [6-Chloropurine] |  |  |
|  | > 10 µM | CC1=N[C@H](C(=O)O)CCN1 [Ectoine] |  |  |
|  | > 10 µM | CC(NC(=O)[C@@H](N)CCC(=O)O)c1ncc[nH]1 (stereo partly shown) [Glutamylamidoethyl imidazole] |  |  |
| > 10 µM |  | N=C(N)c1ccc(OCCCCCCOc2ccc(C(=N)N)cc2)cc1 [Hexamidine diisethionate] | > 10 µM |  |
|  | > 10 µM | c1ccc(-c2n[nH]cc2-c2ccnc3ccccc23)nc1 [LY-364947] |  |  |
|  | > 10 µM | NCCCn1ccnc1 [N-(3-Aminopropyl) imidazole] |  |  |
|  | < 10 µM | O=C(/C=C/C=C/c1ccc2c(c1)OCO2)N1CCCCC1 [Piperine] |  |  |
| > 10 µM |  | Cn1c(=O)c2[nH]cnc2n(C)c1=O [Theophylline] |  |  |
|  | > 10 µM | CC(=O)/C=C/C1=C(C)CCCC1(C)C [β-Ionone] |  |  |

Second part, the molecule before the results:

| SMILES | IC50 (CYP3A4; [4]) | IC50 (CYP3A4; human, recombinant enzyme) | IC50 (CYP3A4; [3]) | also measured |
| --- | --- | --- | --- | --- |
| CC(=O)n1ccnc1 [1-Acetylimidazole] | > 10 µM |  | > 10 µM |  |
| Cn1ccnc1 [1-Methylimidazole] |  | > 10 µM |  |  |
| C=Cn1ccnc1 [1-Vinylimidazole] | > 10 µM |  | > 10 µM |  |
| Cc1nccn1Cc1ccccc1 [1-benzyl-2-methylimidazole] |  |  |  | IC50 at 90 min [1]: 308 µM |
| c1ccc(Cn2ccnc2)cc1 [1-benzylimidazole] |  |  |  | IC50 [1]: 77.5 µM |
| c1ccc(-n2ccnc2)cc1 [1-phenylimidazole] |  |  | 1 µM | CYP inhibitory activity (in words) [2]: elicit CYP inhibitory activity; IC50 [1]: 52.5 µM; IC50 (CYP3A4): < 10 µM; inhibitory activity in the CYP3A4 assay (in words) (CYP3A4): showed inhibitory activity; appearance of aging facial skin after treatment (facial skin): facial skin feels and appears less aged |
| O=C(n1ccnc1)n1ccnc1 [1′-1-Carbonylimidazole] | > 10 µM |  | > 10 µM |  |
| Clc1ccccc1-c1nc2ccccc2[nH]1 [2-(2-Chlorophenyl) benzimidazole] | > 10 µM |  | > 10 µM |  |
| c1ccc(-c2ncc[nH]2)cc1 [2-phenylimidazole, 2-Phenylimidazole] | > 10 µM |  | > 10 µM | CYP inhibitory activity (in words) [2]: lacked any significant inhibitory activity; IC50 [1]: > 500 µM; inhibitory activity in the CYP3A4 assay (in words) (CYP3A4): did not |
| c1ccc(-c2nc[nH]c2-c2ccccc2)cc1 [4,5-diphenylimidazole] |  |  |  | IC50 at 90 min [1]: 100 µM |
| CC(=O)c1ccc(-n2ccnc2)cc1 [4′-(Imidazol-1 yl) acetophenome] |  |  |  | IC50 (CYP3A4): < 10 µM |
| Nc1nc[nH]n1 [Amitrol] |  | > 10 µM |  |  |
| CCCCNC(=O)n1c(NC(=O)OC)nc2ccccc21 [Benomyl] | > 10 µM |  | > 10 µM |  |
| c1ccc2[nH]cnc2c1 [Benzimidazole] | > 10 µM |  | > 10 µM |  |
| c1coc(-c2nc3ccccc3[nH]2)c1 [Fuberidazole] | > 10 µM |  | > 10 µM |  |
| N[C@@H](Cc1c[nH]cn1)C(=O)O [Histidine] |  | > 10 µM |  |  |
| N[C@@H](Cc1c[nH]c2ccccc12)C(=O)O [L-Tryptophan] |  | > 10 µM |  |  |
| Cc1cccc(C)c1N(Cn1cccn1)C(=O)CCl [Metazachlor] | > 10 µM |  | > 10 µM |  |
| Cc1ccc2cc3c(ccc4ccccc43)c3c2c1CC3 [Methyl- cholanthrene] |  |  | > 10 µM | hit / no hit (CYP3A4 inhibition) (CYP3A4; [3]): Near Hit |
| CCc1cccc(C)c1N(C(=O)CCl)C(C)COC (stereo not shown) [Metolachlor] |  |  |  | IC50 (CYP3A4): > 10 µM |
| CC(C)(C(=O)c1cccnc1)c1cccnc1 [Metyrapone] |  |  |  | IC50 (CYP3A4): < 10 µM |

From patent US9138393B2, “Cosmetic compositions containing substituted azole and methods for improving the appearance of aging skin” (The Proctor & Gamble Company, priority 2013, dated 2015)
